Measurements reported in patent US12448414B2, “Antimicrobial peptide (AMP) for controlling Pseudomonas syringae pv. actinidiae (PSA) and preparation method and use thereof” (Anhui Agricultural University, priority 2023, dated 2025).
Entries after “also recorded” stand apart in the source; their conditions may differ. Where two headings read alike, the source gives them in different places. No end group written: not given here.

Experiments:
[1] = tested on: defense genes (PR1 and PR-10); test: RT-qPCR of defense genes in kiwifruit leaves; type: in vivo; conditions: PSA-inoculated kiwifruit leaves, 48 h
Experimental: The expression of defense genes (PRI and PR-10) in kiwifruit leaves was detected by RT-qPCR. The leaves were collected 48 h after AMP inoculation with PSA, and a total RNA was extracted from three leaf discs for each replicate, and cDNA was synthesized. The RT-qPCR was conducted using the method in Example 4. Actin was used as a reference gene. […] A relative expression level of genes was calculated by a 2-AACT method.

PSA cell membrane = test: Membrane permeabilization (OD260 of filtrates); type: cell-based, Pseudomonas syringae pv. actinidiae; conditions: 1 MIC, 120 min, relative to Triton X-100; increased from 2.61%
Experimental: Membrane permeabilization was determined according to a method of Dang et al. (2020, Antimicrobial peptides from the edible insect Musca domestica and their preservation effect on chilled pork). PSA cells (10^7 CFU/mL) in a logarithmic growth phase were incubated with 1 MIC of the AMP synthesized in Example 1 at 28° C. for 120 min. The resulting cultures were filtered through a 0.22 μm membrane and OD260 value of the filtrates were determined. 10 mM of a phosphate-buffered saline (PBS) and Triton X-100 were used as negative and positive controls, respectively. The membrane permeabilization was calculated according to the following formula: Permeabilization (%)=(OD260 AMP/OD260 Triton)×100%.

PSA cells [2] = test: ROS level (DCFH-DA fluorescence); type: cell-based, Pseudomonas syringae pv. actinidiae
Experimental: The reactive oxygen species (ROS) level of PSA treated with the AMP synthesized in Example 1 was evaluated using a ROS detection kit (LabLead, Beijing, China). PSA cells (10^7 CFU/mL) were incubated with different concentrations of the AMPs (0.5 MIC to 2 MICs) at 28° C. for 2 h. At the same time, sterile water was set as a control. The cells were resuspended in PBS and then incubated with 10 μM of 2′,7′-dichlorodihydrofluorescein diacetate (DCFH-DA) for 30 min at 28° C. Fluorescence intensity was measured at excitation/emission wavelengths of 485 nm/525 nm using a SpectraMax i3 microplate reader (Molecular Devices, San Jose, USA).

[3] = tested on: intracellular esterase of PSA; test: Intracellular esterase activity (FDA fluorescence); type: cell-based, Pseudomonas syringae pv. actinidiae; conditions: 1 MIC, at 120 min
Experimental: The intracellular esterase activity of PSA was measured with fluorescein diacetate (FDA). PSA cells (10^7 CFU/mL) were added to a black 96-well microplate preloaded with 1 MIC of the AMP synthesized in Example 1. The cells in each well were mixed with 10 mM of the FDA and incubated at 28° C. for 10 min. Fluorescence intensity was measured at excitation wavelengths of 480 nm/530 nm using the SpectraMax i3 microplate reader (Molecular Devices, San Jose, USA), respectively.

PSA [4] = type: cell-based, Pseudomonas syringae pv. actinidiae; conditions: 3 h
Experimental: The EC50 was determined according to a method of Gupta et al. (2015, Short, synthetic cationic peptides have antibacterial activity against Mycobacterium smegmatis by forming pores in membrane and synergizing with antibiotics). The PSA cells (10^5 CFU/mL) in a logarithmic growth phase were added to a 96-well microplate that was preloaded with different concentrations of the AMP synthesized in Example 1 (0.39 μg/mL to 12.5 μg/mL) or AS (62.5 μg/mL to 2,000 μg/mL), and then incubated at 28° C. for 3 h. A serially diluted mixture was spread on the LB agar plate, incubated for 48 h, and the colonies were counted. The EC50 was calculated by plotting percent killing as a function of the lg of AMP concentrations.

PSA [5] = test: MIC determination by broth microdilution; type: cell-based, Pseudomonas syringae pv. actinidiae; conditions: PSA 10^5 CFU/mL, LB, 28° C., 24 h, OD600
Experimental: The MIC was determined by a broth microdilution method (Mishra et al., 2017, Individual and combined effects of engineered peptides and antibiotics on Pseudomonas aeruginosa biofilms). PSA cells in a logarithmic growth phase were diluted to 10^5 colony forming units (CFU)/mL with an LB liquid medium (including 10 g/L peptone, 5 g/L yeast extract powder, and 10 g/L NaCl), and added into a 96-well microplate that was preloaded with different concentrations of the AMP synthesized in Example 1 (1.56 μg/mL to 200 μg/mL) or agricultural streptomycin (AS) (125 μg/mL to 4,000 μg/mL). After incubation at 28° C. for 24 h, an absorbance at 600 nm (OD600) of each sample was measured using a Multiskan FC microplate reader (Thermo Fisher Scientific, Waltham, USA); while sterile water was used as a control.

PSA cells [6] = test: Membrane depolarization with DiSC3(5); type: cell-based, Pseudomonas syringae pv. actinidiae; conditions: 1 MIC, 28° C., 30 min
Experimental: Membrane depolarization was measured using a membrane potential-sensitive cyano dye 3,3′-dipropylthiadicarbocyanine iodide (DiSC3(5)) according to a method of Juba et al. (2015, Helical cationic antimicrobial peptide length and its impact on membrane disruption). PSA cells (10^7 CFU/mL) were suspended in a PBS containing 50 μg/mL of the DiSC3(5) and added to a black 96-well microplate. The microplate was incubated in a SpectraMax i3 microplate reader (Molecular Devices, San Jose, USA), and monitored until fluorescence leveled off. 1 MIC of the AMP synthesized in Example 1 was added and incubated at 28° C. for 30 min; while the PBS was used as a control. The fluorescence intensity of each sample was measured at excitation/emission wavelengths of 622 nm/670 nm, respectively.

PSA cells [7] = test: Calcium ion leakage of PSA cells; type: cell-based, Pseudomonas syringae pv. actinidiae; conditions: after 120 min of treatment; increased from 8.70 μM
PSA [8] = test: Control effect and bacterial load on kiwifruit leaves inoculated with PSA; type: in vivo, Pseudomonas syringae pv. actinidiae on kiwifruit; conditions: 1 MIC; for disease control effect: kiwifruit leaves inoculated with PSA, lesion area vs control; for bacterial load in leaves: kiwifruit leaves, 96 h
Experimental: The method of Bai et al. (2022, Application of phage therapy against red-fleshed kiwifruit canker) was selected to evaluate a control effect of the AMP synthesized in Example 1 on kiwifruit leaves inoculated with PSA. The leaves were injured with a syringe needle and covered with a filter paper (ϕ=1 cm) containing 50 μL of PSA (10^8 CFU/mL). After 2 h, 1 MIC of AMP or AS was added; while the PBS was used as a control. The kiwifruit plants were cultured for 96 h at 25±1° C., 70±5% relative humidity (RH), and a photoperiod of 16 h: 8 h. The lesion area and the number of colonies were counted every 48 h, and the disease control effect (%) was calculated using the following formula: Control effect (%)=(1−Lesion areatreatment/Lesion areacontrol)×100%
Bacterial load in leaves was determined according to a colony count method of Barrett-Manako et al. (2021, Real-time PCR and droplet digital PCR are accurate and reliable methods to quantify Pseudomonas syringae pv. actinidiae biovar 3 in kiwifruit infected plantlets). Leaves were collected, washed with sterile water, and homogenized with PBS. A homogenate was inoculated into a King's B solid medium (supplemented with nitrofurantoin at 12.5 μg/mL and cephalexin at 40 μg/mL). After incubation at 28° C. for 48 h, the colonies were counted to calculate lg CFU/cm^2. Colonies were confirmed by PCR using specific primers for the 16S-23SrDNA-ITS sequence of PSA (Table 1), and sequenced.

[9] = tested on: DNA replication (dnaA and dnaB) and DNA repair (recA and recN) genes; test: RT-qPCR of DNA replication and repair genes; type: cell-based, Pseudomonas syringae pv. actinidiae; conditions: 1 MIC, 28° C., 2 h
Experimental: PSA cells (10^7 CFU/mL) were incubated with 1 MIC of the AMP synthesized in Example 1 at 28° C. for 2 h. At the same time, sterile water was set as a control. A total RNA was extracted, and cDNA was synthesized using PrimeScript RT Master Mix (Takara, Dalian, China). The expression of DNA replication (dnaA and dnaB) and DNA repair (recA and recN) genes were detected by reverse transcription-quantitative PCR (RT-qPCR). The RT-qPCR was conducted with a mixed system including 10 μL of Masser Mix (Tsinke, Beijing, China), 0.8 μL of each primer (0.5 μM), 0.4 μL (200 ng) of the cDNA, and 8 μL of water. The reaction was conducted by: at 50° C. for 2 min; initial denaturation at 95° C. for 2 min; and at 95° C. for 15 sec, at 55° C. for 30 sec, and at 72° C. for 30 sec, conducting 40 cycles. 16S rRNA was used as a reference gene. A relative expression level of genes was calculated by a 2-AACT method.

PSA cells [10] = test: SEM and TEM observation of PSA cells; type: cell-based, Pseudomonas syringae pv. actinidiae; conditions: 1 MIC, 2 h, 28° C.
Experimental: Scanning electron microscopy (SEM) and Transmission electron microscopy (TEM) were used to observe the morphological and intracellular changes of the PSA cells treated with the AMP synthesized in Example 1. PSA cells (10^7 CFU/mL) were incubated with the AMP (1 MIC) for 2 h at 28° C.; while sterile water was used as a control. For SEM, cell samples were prepared according to a protocol of Juba et al. (2015, Helical cationic antimicrobial peptide length and its impact on membrane disruption) and observed under a Hitachi SU8100 SEM (Tokyo, Japan). For TEM, cell samples were prepared according to a method of Nguyen et al. (2021, Comparison of two transmission electron microscopy methods to visualize drug-induced alterations of gram-negative bacterial morphology) and observed under a Hitachi HT-7700 TEM (Tokyo, Japan).

PSA [11] = test: Drug resistance of PSA to the AMP (repeated subculture, MIC change); type: cell-based, Pseudomonas syringae pv. actinidiae; conditions: repeated treatment at 0.75, 1 and 1.25 MIC, 14 d
Experimental: Microbial resistance was determined according to a method of Steczko et al. (2009, Microbial inactivation properties of a new antimicrobial/antithrombotic catheter lock solution (citrate/methylene blue/parabens)). 10^5 CFU/mL of a PSA bacteria solution was treated with AMPs at final concentrations of 0.75 MIC, 1 MIC, and 1.25 MIC. After 24 h of incubation, the MIC was determined by microdilution assay. Subculture and MIC determination were conducted by the same method every day for a total of 14 d. The drug resistance of PSA was evaluated by observing changes of the MIC.

PSA [12] = type: cell-based, Pseudomonas syringae pv. actinidiae
Experimental: The samples in the wells with a concentration of greater than 1 MIC during the MIC determination in step 1 were spread on an LB agar plate (including 10 g/L peptone, 5 g/L yeast extract powder, 10 g/L NaCl, and 15 g/L agar), and the colonies were counted after incubation at 28° C. for 48 h.

PSA genomic DNA = test: DNA gel retardation; type: binding, Pseudomonas syringae pv. actinidiae; conditions: 200 ng DNA, 15.63 ng to 1,000 ng AMP, 28° C., 30 min
Experimental: A PSA genomic DNA (200 ng) was incubated with different amounts of the AMP (15.63 ng to 1,000 ng) synthesized in Example 1 at 28° C. for 30 min. At the same time, sterile water was set as a control. After electrophoresis, DNA gel retardation was observed under UV illumination using a Bio-Rad Universal Hood II Gel Doc XR system (Hercules, USA).

WWKLLRKL-NH2 [AMP, Trp-Trp-Lys-Leu-Leu-Arg-Lys-Leu-NH2]
expression level of PR 1 relative to control [1]: 1.38 times that of the control group | expression level of PR-10 relative to control [1]: 1.74 times that of the control | permeabilization of the PSA cell membrane (PSA cell membrane): 11.44% | ROS fluorescence intensity, dose dependence (PSA cells [2]; 0.5 MIC to 2 MICs): increased in a dose-dependent manner | ROS fluorescence intensity relative to control (PSA cells [2]; 2 MIC, 28° C., 2 h): 4.22 times that of the control | esterase (FDA) fluorescence intensity relative to control [3]: 0.34 times that of the control | EC50 (PSA [4]): 1.67 µg/mL | MIC (PSA [5]): 3.13 µg/mL | membrane depolarization (DiSC3(5) fluorescence) (PSA cells [6]): significantly induced an increase in DiSC3 (5) fluorescence | calcium ion leakage (PSA cells [7]): 60.87 µM | disease control effect (PSA [8]): 70.53% | bacterial load in leaves (PSA [8]): 2.95 lg CFU/cm^2 | reduction of dnaA expression level vs control [9]: 80.64% | reduction of dnaB expression level vs control [9]: 57.51% | reduction of recA expression level vs control [9]: 35.28% | reduction of recN expression level vs control [9]: 39.23% | cell morphology and intracellular changes (SEM/TEM) (PSA cells [10]): notable alterations in cell morphology | drug resistance of PSA (change of MIC) (PSA [11]): no drug resistance of PSA to AMP is observed; also recorded: no change was found in the MIC | MBC (PSA [12]; 48 h): 6.25 µg/mL | binding with PSA genomic DNA (gel retardation) (PSA genomic DNA): bind to the genomic DNA of PSA and retard the migration of DNA in a concentration-dependent manner

agricultural streptomycin [AS, reference compound]
MIC (PSA [5]): 500 µg/mL | disease control effect (PSA [8]): 55.80% | bacterial load in leaves (PSA [8]): 4.48 lg CFU/cm^2 | MBC (PSA [12]; LB agar plate, 28° C., 48 h colony count): 1,000 μg/mL
